What was measured:
A549 cells = test: Live cell imaging (confocal microscope) with Na2S4 added; format: cell-based
Procedure: The SSip-1 DA was introduced into A549 cells, and 500 μM of Na2S4 was added outside the cells under a microscope. The A549 cells were incubated for three hours by 10 μM of SSip-1 DA (containing 0.0003% Purulonic and 1% DMSO as a co-solvent). The excitation wavelength was 488 nm, and the emission wavelengths were 500-570 nm and 590-650 nm. […]

[1] = Absorption and fluorescence spectra of the probe after addition of Na2S4 in buffer; details: 1 μM probe, 0.1 M sodium phosphate buffer pH 7.4, 300 μM GSH
Procedure: Na2S4 was added to compound 8 synthesized as described above, and the absorption spectrum (UV-1650PC, Shimadzu) and fluorescence spectrum (F-4500, Hitachi) were measured.
(§1) The excitation wavelength was 470 nm.
Na2S4 was added to the synthesized compound a1, compound a2, and compound 25, which was obtained by deprotecting compound a4, and the absorption and fluorescence spectra were measured.

[2] = Selectivity with H2S (addition of NaHS); details: 0.1 μm of SSip-1, pH 7.4, 300 μM GSH, 50 μM NaHS, excitation 470 nm
Text: as §1

[3] = Reversibility of SSip-1 (in vitro assay in the presence of 5 mM of GSH); details: 1 μM probe, pH 7.4, 5 mM GSH
Procedure: Reversibility of SSip-1 (In Vitro Assay in the Presence of 5 mM of GSH)
The existence of a response to sulfane sulfur was studied in the presence of 5 mM of GSH, which is the GSH concentration in cells (FIG. 4).
as §1

cells = test: Localization in cells, co-staining with Lysotracker or Mitotracker; format: cell-based
Procedure: The localization in cells was studied using compound a3. […] The cells were incubated for one hour by 10 μM of compound a3 and 50 nM of Lysotracker Deep red or 200 nM of Mitotracker Deep red in DMEM (containing 0.03% Purulonic and 0.1% DMSO as a co-solvent). Ex/Em=488 nm (laser intensity 20%)/500-540 nm (PMT1000) and 650 nm/670-700 nm (PMT600)

[4] = A549 cells incubated 3 h with 10 μM SSip-1 DA, 500 μM Na2S4 added, excitation 488 nm

SSip-1
intensity of the fluorescein-derived fluorescence wavelength region (500-570 nm) (A549 cells; [4]): increased
intensity of the rhodamine-derived fluorescence wavelength region (590-650 nm) (A549 cells; [4]): decreased slightly
time for fluorescence to decrease after washout (A549 cells; A549 live cells, after washout of 250 μM Na2S4): about 20 minutes
time for fluorescence to rise after Na2S4 addition (A549 cells; A549 live cells, repeated addition of 250 μM Na2S4): within one minute
change in absorbance on the rhodamine side ([1]; after 50 μM Na2S4): decrease in absorbance on the rhodamine side
rise in fluorescence intensity ([1]; after 50 μM Na2S4, excitation 470 nm): approximately 10 fold
rise in fluorescence intensity with H2S donor [2]: virtually no rise in fluorescence intensity
fluorescence after addition of Na2S4 ([3]; 50 μM Na2S4, excitation 470 nm): the fluorescence rose after addition of Na2S4
reversibility (fluorescence on repeated Na2S4 addition) ([3]; Na2S4 added again): showing reversibility
merging with Lysotracker and Mitotracker (cells; cells incubated 1 h with 10 μM compound a3 and 50 nM Lysotracker Deep red or 200 nM Mitotracker Deep red in DMEM): did not merge with Lysotracker and Mitotracker
localization in cells (cells; in comparison to the localization when only SSip-1 was loaded): localized in the mitochondria

Source: US20180052105A1, “SULFANE SULFUR-SELECTIVE FLUORESCENT PROBE” (The University of Tokyo, priority 2015, published 2018)
